# Data from patent US10821115B2, “Compounds that inhibit Mcl-1 protein” (priority 2017, dated 2020).
# Read-outs that look alike come from different tables or passages of the source.
# What was measured:
# [1] = biological target: recombinant human Mcl-1 (residues 171-327) / Bim interaction (Homo sapiens (Human), UniProt Q07820); assay: biochemical; format: binding; conditions: read-out: Mcl-1 HTRF IC50
# [2] = tested on: human multiple myeloma cell line, OPM-2; assay: Cell viability assay (OPM-2 10 FBS), CellTiter-Glo; format: cell-based
# Method in brief: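 IC50 values come from 4-parameter logistic fits of luminescence signals reflecting cell viability. Treatment lasted 16 h at 37 °C in complete medium with 10% FBS, starting from 3000 cells/well.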
# [3] = TR-FRET, Mcl-1(171-327) / biotin-Bim (51-76)
# [4] = Homo sapiens, OPM-2, 16 h, read-out: OPM-2 10% FBS IC50 IP, OPM-2 cells, 10% FBS, 16 h, CellTiter-Glo
# [5] = 0.1 nM Mcl-1(171-327), 0.05 nM biotin-Bim (51-76)
# [6] = Homo sapiens, OPM-2, 16 h, read-out: OPM-2 10% FBS IC50 IP, OPM-2 cells, 10% FBS, 16 h incubation
# [7] = read-out: OPM-2 10% FBS IC50 IP, OPM-2 cells, 10% FBS, 16 h, CellTiter-Glo
# recombinant human Mcl-1 (residues 171-327) / Bim interaction, sequence (Q07820 171-327): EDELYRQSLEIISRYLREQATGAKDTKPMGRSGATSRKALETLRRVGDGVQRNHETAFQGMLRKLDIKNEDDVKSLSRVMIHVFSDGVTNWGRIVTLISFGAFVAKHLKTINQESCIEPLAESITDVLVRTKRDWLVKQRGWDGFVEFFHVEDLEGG
SMILES,"IC50 [1, 3] [nM]","IC50 [2, 4] [nM]","IC50 [1, 5] [nM]","IC50 [2, 6] [nM]","IC50 [2, 7] [nM]"
"CNC(=O)C[C@]1(O)CCC[C@H](C)[C@@H](C)S(=O)(=O)NC(=O)c2ccc3c(c2)N(C[C@@H]2CC[C@H]21)C[C@@]1(CCCc2cc(Cl)ccc21)CO3 [Example 100098, 2-((1S,3′R,6′R,7′R,11′S,12′R)-6-chloro-7′-hydroxy-11′,12′-dimethyl-13′,13′-dioxido-15′-oxo-3,4-dihydro-2H-spiro[naphthalene-1,22′-[20]oxa[13]thia[1,14]diazatetracyclo [14.7.2.0~3,6~.0~19,24~]pentacosa[16,18,24]trien]-7′-yl)-N-methylacetamide]",0.231,748,–,–,–
"C[C@@H]1[C@@H](C)C/C=C/[C@@](O)(c2cncc(-c3ccccc3)c2)[C@@H]2CC[C@H]2CN2C[C@@]3(CCCc4cc(Cl)ccc43)COc3ccc(cc32)C(=O)NS1(=O)=O (single isomer, unassigned) [Example 100534]",0.799,542,–,–,–
"CCCO[C@]1(CN2CCN3CCOC[C@@H]3C2)/C=C/C[C@H](C)[C@@H](C)S(=O)(=O)NC(=O)c2ccc3c(c2)N(C[C@@H]2CC[C@H]21)C[C@@]1(CCCc2cc(Cl)ccc21)CO3 [Example 351, (1S,3′R,6′R,7′R,8′E,11′S,12′R)-6-chloro-7′-((9aS)-hexahydropyrazino[2,1-c][1,4]oxazin-8(1H)-ylmethyl)-11′,12′-dimethyl-7′-propoxy-3,4-dihydro-2H,15′H-spiro[naphthalene-1,22′-[20]oxa[13]thia[1,14]diazatetracyclo [14.7.2.0~3,6~.0~19,24~]pentacosa[8,16,18,24]tetraen]-15′-one 13′,13′-dioxide]",–,–,0.121,196,–
"C[C@@H]1[C@@H](C)C/C=C/[C@@](O)(c2ccc(F)nc2)[C@@H]2CC[C@H]2CN2C[C@@]3(CCCc4cc(Cl)ccc43)COc3ccc(cc32)C(=O)NS1(=O)=O (single isomer, unassigned) [Example 100530]",0.171,–,–,–,448
"CCN1[C@H](C)CN(C[C@@]2(OC)/C=C/C[C@H](C)[C@@H](C)S(=O)(=O)NC(=O)c3ccc4c(c3)N(C[C@@H]3CC[C@H]32)C[C@@]2(CCCc3cc(Cl)ccc32)CO4)C[C@@H]1C [Example 341, (1S,3′R,6′R,7′R,8′E,11′S,12′R)-6-chloro-7′-(((3R,5S)-4-ethyl-3,5-dimethyl-1-piperazinyl)methyl)-7′-methoxy-11′,12′-dimethyl-3,4-dihydro-2H,15′H-spiro[naphthalene-1,22′-[20]oxa[13]thia[1,14]diazatetracyclo [14.7.2.0~3,6~.0~19,24~]pentacosa[8,16,18,24]tetraen]-15′-one 13′,13′-dioxide]",–,–,0.052,42,–
"C[C@@H]1[C@@H](C)C/C=C/[C@](O)(C#N)[C@@H]2CC[C@H]2CN2C[C@@]3(CCCc4cc(Cl)ccc43)COc3ccc(cc32)C(=O)NS1(=O)=O [Example 100237, (1S,3′R,6′R,7′R,8′E,11′S,12′R)-6-chloro-7′-hydroxy-11′,12′-dimethyl-15′-oxo-3,4-dihydro-2H-spiro[naphthalene-1,22′-[20]oxa[13]thia[1,14]diazatetracyclo [14.7.2.0~3,6~.0~19,24~]pentacosa[8,16,18,24]tetraene]-7′-carbonitrile 13′,13′-dioxide]",1.74,996,–,–,–
"C[C@@H]1[C@@H](C)C/C=C/[C@@](O)(CC(=O)N2CCCC2)[C@@H]2CC[C@H]2CN2C[C@@]3(CCCc4cc(Cl)ccc43)COc3ccc(cc32)C(=O)NS1(=O)=O [Example 100252, (1S,3′R,6′R,7′S,8′E,11′S,12′R)-6-chloro-7′-hydroxy-11′,12′-dimethyl-7′-(2-oxo-2-(1-pyrrolidinyl)ethyl)-3,4-dihydro-2H,15′H-spiro[naphthalene-1,22′-[20]oxa[13]thia[1,14]diazatetracyclo [14.7.2.0~3,6~.0~19,24~]pentacosa[8,16,18,24]tetraen]-15′-one 13′,13′-dioxide]",0.112,–,–,–,77
